Reference: the NIST ThermoML archive (doi:10.1016/j.tca.2015.06.017)

Assay: xn = mol fraction of the nth substance listed
Settings: 303.15 K, Liquid, Vibrating tube method

CC(C)(C)Cl [2-chloro-2-methylpropane] + CCCCCCC
mass density [kg/m3]
Settings | 100 kPa | 2000 kPa | 5000 kPa | 7000 kPa | 10000 kPa | 20000 kPa | 30000 kPa | 40000 kPa | 50000 kPa
x2 = 0.0554 | 818.78 | 821.47 | 825.59 | 828.15 | 832 | 843.57 | 853.99 | 863.35 | 871.81
x2 = 0.1017 | 809.14 | 811.82 | 815.8 | 818.38 | 822.04 | 833.51 | 843.73 | 852.88 | 861.28
x2 = 0.2004 | 789.72 | 792.22 | 796.16 | 798.56 | 802.32 | 813.29 | 823.05 | 832.1 | –
x2 = 0.3016 | 771.27 | 773.66 | 777.4 | 779.88 | 783.29 | 793.94 | 803.47 | 812.13 | –
x2 = 0.4097 | 753.07 | 755.51 | 759.02 | 761.39 | 764.7 | 774.96 | 784.21 | 792.62 | –
x2 = 0.498 | 739.29 | 741.69 | 745.08 | 747.28 | 750.6 | 760.6 | 769.56 | 777.76 | –
x2 = 0.5983 | 724.71 | 727.08 | 730.47 | 732.58 | 735.66 | 745.27 | 753.98 | 761.89 | –
x2 = 0.7017 | 710.79 | 713.01 | 716.37 | 718.4 | 721.43 | 730.77 | 739.18 | 746.9 | –
x2 = 0.7995 | 698.55 | 700.74 | 703.86 | 705.86 | 708.91 | 717.92 | 726.07 | 733.47 | –
x2 = 0.9032 | 686.4 | 688.51 | 691.56 | 693.5 | 696.4 | 705.2 | 713.06 | 720.32 | –
x2 = 0.9482 | 681.35 | 683.42 | 686.48 | 688.38 | 691.28 | 699.94 | 707.83 | 714.92 | –
